According to patent publication US11000033B2, “Ketone or oxime compound, and herbicide” (NISSAN CHEMICAL CORPORATION, priority 2014, dated 2021):

How the values were obtained:
Format in all cases: in vivo
Alopecurus myosuroides [1] = experiment: Test Example 5: herbicidal effect by foliage application, plastic box (symbol J); conditions: 320 g/ha, 3 weeks after application
In short: (§1)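 Herbicide, formulated as an emulsion and diluted in water, is sprayed onto the aerial parts of 14-day seedlings. These were grown at 25° C. to 30° C. in sterilized diluvial soil; effects are graded after 3 weeks.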

Lolium multiflorum Lam. [2] = experiment: Test Example 5: herbicidal effect by foliage application, plastic box (symbol K); conditions: 320 g/ha, 3 weeks after application
In short: as §1

Stellaria media = experiment: Test Example 4: herbicidal effect by soil treatment (symbol P); conditions: application herbicide amount 320 g/ha
In short: (§2)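 Seeds were sown in sterilized diluvial soil, covered with about 1.5 cm of soil, and the soil surface was sprayed with a water-diluted emulsion of the compound at a predetermined rate. Plants grew in a greenhouse at 25° C. to 30° C.; effects were scored visually 3 weeks after application.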

Alopecurus myosuroides [3] = experiment: Test Example 4: herbicidal effect by soil treatment (symbol J); conditions: application herbicide amount 320 g/ha
In short: as §2

beet = experiment: Test Example 4: effect on crop by soil treatment (symbol f); conditions: application herbicide amount 320 g/ha
In short: (§3)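 Soil-treatment setup: crop and weed seeds were spot-sown into sterilized diluvial soil, then buried beneath approximately 1.5 cm of it, and the boxes were housed in a 25–30° C. greenhouse.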

Lolium multiflorum Lam. [4] = experiment: Test Example 4: herbicidal effect by soil treatment (symbol K); conditions: application herbicide amount 320 g/ha
In short: as §2

corn = experiment: Test Example 4: effect on crop by soil treatment (symbol c); conditions: application herbicide amount 320 g/ha
In short: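 Plants are raised in a greenhouse (25° C. to 30° C.) from spot-sown seed, which sits under about 1.5 cm of sterilized diluvial soil in a box shared with weed species.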

[5] = tested on: Echinochloa oryzacola Vasing.; experiment: Test Example 2: herbicidal activity, application during weed generation in submerged conditions (symbol A); conditions: Table 23; application herbicide amount 320 g/ha; grade 0-5 by criteria of Test Example 1
In short: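 Compound was applied as a water-diluted emulsion into the standing water of flooded pots (4 cm) once co-sown weeds reached one to two leaves. Greenhouse temperature was 25° C. to 30° C., soil was alluvial, and each species was rated visually after 3 weeks.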

rapeseed = experiment: Test Example 4: effect on crop by soil treatment (symbol g); conditions: application herbicide amount 320 g/ha
In short: as §3

wheat [6] = experiment: Test Example 4: effect on crop by soil treatment (symbol e); conditions: application herbicide amount 320 g/ha
In short: as §3

rice plant = experiment: Test Example 5: effect on crop by foliage application, plastic box (symbol b); conditions: 320 g/ha, 3 weeks after application
In short: (§4)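 Foliage-application test plants come from spot sowing in sterilized diluvial soil under a soil layer of about 1.5 cm, grown at 25° C. to 30° C. in a greenhouse.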

Digitaria ciliaris = experiment: Test Example 4: herbicidal effect by soil treatment (symbol F); conditions: application herbicide amount 320 g/ha
In short: as §2

[7] = tested on: directly sowed rice plant; experiment: Test Example 3: effect on crop by foliage application, Wagner pot (symbol b); conditions: application herbicide amount 320 g/ha
In short: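 Greenhouse culture at 25–30 °C of seeded rice, Cyperus difformis, Leptochloa chinensis and Echinochloa crus-galli var. crus-galli, in alluvial soil held under 0.1–0.5 cm of water in a Wagner pot.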

rice = experiment: Test Example 4: effect on crop by soil treatment (symbol b); conditions: application herbicide amount 320 g/ha
In short: as §3

wheat [8] = experiment: Test Example 5: effect on crop by foliage application, plastic box (symbol e); conditions: 320 g/ha, 3 weeks after application
In short: as §4

## CON=C(C)CC1CC(O)=C(c2c(C)cc(OCc3ccncc3)cc2C)C1=O (mixture of isomers) [6-053]
Alopecurus myosuroides [1]
  J: Alopecurus myosuroides, herbicidal effect grade: 3 (Herbicidal ratio of 40% or higher and lower than 70%)
Lolium multiflorum Lam. [2]
  K: Lolium multiflorum Lam., herbicidal effect grade: 5 (Herbicidal ratio of 90% or more (almost completely withered))
Stellaria media
  P: Stellaria media, herbicidal effect grade: 0 (Herbicidal ratio of 5% or lower (almost no effect))
Alopecurus myosuroides [3]
  J: Alopecurus myosuroides, herbicidal effect grade: 0 (Herbicidal ratio of 5% or lower (almost no effect))
beet
  f: beet, effect on crop grade: 0 (Herbicidal ratio of 5% or lower (almost no effect))
Lolium multiflorum Lam. [4]
  K: Lolium multiflorum Lam., herbicidal effect grade: 0 (Herbicidal ratio of 5% or lower (almost no effect))
corn
  c: corn, effect on crop grade: 1 (Herbicidal ratio of 5% or higher and lower than 20%)
[5]
  Herbicidal effect grade, A: Echinochloa oryzacola Vasing.: 3 (Herbicidal ratio of 40% or higher and lower than 70%)
rapeseed
  g: rapeseed, effect on crop grade: 0 (Herbicidal ratio of 5% or lower (almost no effect))
Wheat [6]
  e: wheat, effect on crop grade: 0 (Herbicidal ratio of 5% or lower (almost no effect))
Rice plant
  b: directly sowed rice plant, effect on crop grade: 3 (Herbicidal ratio of 40% or higher and lower than 70%)
Digitaria ciliaris
  F: Digitaria ciliaris, herbicidal effect grade: 4 (Herbicidal ratio of 70% or higher and lower than 90%)
[7]
  effect on crop b (directly sowed rice plant), grade 0-5: 5 (Herbicidal ratio of 90% or more (almost completely withered))
rice
  b: directly sowed rice plant, effect on crop grade: 2 (Herbicidal ratio of 20% or higher and lower than 40%)
Wheat [8]
  e: wheat, effect on crop grade: 0 (Herbicidal ratio of 5% or lower (almost no effect))

## CC(=O)CC1CC(O)=C(c2c(C)cc(-c3ccccc3)cc2C)C1=O (stereo not drawn) [7-004]
Alopecurus myosuroides [1]
  J: Alopecurus myosuroides, herbicidal effect (criteria of Test Example 1): 5 (Herbicidal ratio of 90% or more (almost completely withered))
Lolium multiflorum Lam. [2]
  K: Lolium multiflorum Lam., herbicidal effect (criteria of Test Example 1): 5 (Herbicidal ratio of 90% or more (almost completely withered))
Stellaria media
  Herbicidal effect grade, P: Stellaria media: 0 (Herbicidal ratio of 5% or lower (almost no effect))
Alopecurus myosuroides [3]
  Herbicidal effect grade, J: Alopecurus myosuroides: 5 (Herbicidal ratio of 90% or more (almost completely withered))
beet
  Effect on crop grade, f: beet: 0 (Herbicidal ratio of 5% or lower (almost no effect))
Lolium multiflorum Lam. [4]
  Herbicidal effect grade, K: Lolium multiflorum Lam.: 5 (Herbicidal ratio of 90% or more (almost completely withered))
corn
  Effect on crop grade, c: corn: 4 (Herbicidal ratio of 70% or higher and lower than 90%)
[5]
  Herbicidal effect grade, A: Echinochloa oryzacola Vasing.: 4 (Herbicidal ratio of 70% or higher and lower than 90%)
rapeseed
  Effect on crop grade, g: rapeseed: 3 (Herbicidal ratio of 40% or higher and lower than 70%)
Wheat [6]
  Effect on crop grade, e: wheat: 0 (Herbicidal ratio of 5% or lower (almost no effect))
Rice plant
  b: directly sowed rice plant, effect on crop (criteria of Test Example 1): 5 (Herbicidal ratio of 90% or more (almost completely withered))
Digitaria ciliaris
  Herbicidal effect grade, F: Digitaria ciliaris: 5 (Herbicidal ratio of 90% or more (almost completely withered))
[7]
  effect on crop b (directly sowed rice plant), grade 0-5: 5 (Herbicidal ratio of 90% or more (almost completely withered))
rice
  Effect on crop grade, b: directly sowed rice plant: 5 (Herbicidal ratio of 90% or more (almost completely withered))
Wheat [8]
  e: wheat, effect on crop (criteria of Test Example 1): 0 (Herbicidal ratio of 5% or lower (almost no effect))

## CON=C(C)CC1CC(OC(=O)N2CCCCC2)=C(c2c(C)cc(C)cc2OC)C1=O (stereo not drawn) [6-111]
Alopecurus myosuroides [1]
  J: Alopecurus myosuroides, herbicidal effect (criteria of Test Example 1): 5 (Herbicidal ratio of 90% or more (almost completely withered))
Lolium multiflorum Lam. [2]
  K: Lolium multiflorum Lam., herbicidal effect (criteria of Test Example 1): 5 (Herbicidal ratio of 90% or more (almost completely withered))
Stellaria media
  Herbicidal effect grade, P: Stellaria media: 0 (Herbicidal ratio of 5% or lower (almost no effect))
Alopecurus myosuroides [3]
  Herbicidal effect grade, J: Alopecurus myosuroides: 5 (Herbicidal ratio of 90% or more (almost completely withered))
beet
  Effect on crop grade, f: beet: 0 (Herbicidal ratio of 5% or lower (almost no effect))
Lolium multiflorum Lam. [4]
  Herbicidal effect grade, K: Lolium multiflorum Lam.: 5 (Herbicidal ratio of 90% or more (almost completely withered))
corn
  Effect on crop grade, c: corn: 0 (Herbicidal ratio of 5% or lower (almost no effect))
[5]
  Herbicidal effect grade, A: Echinochloa oryzacola Vasing.: 5 (Herbicidal ratio of 90% or more (almost completely withered))
rapeseed
  Effect on crop grade, g: rapeseed: 0 (Herbicidal ratio of 5% or lower (almost no effect))
Wheat [6]
  Effect on crop grade, e: wheat: 0 (Herbicidal ratio of 5% or lower (almost no effect))
Rice plant
  b: directly sowed rice plant, effect on crop (criteria of Test Example 1): 5 (Herbicidal ratio of 90% or more (almost completely withered))
Digitaria ciliaris
  Herbicidal effect grade, F: Digitaria ciliaris: 4 (Herbicidal ratio of 70% or higher and lower than 90%)
[7]
  effect on crop b (directly sowed rice plant), grade 0-5: 5 (Herbicidal ratio of 90% or more (almost completely withered))
rice
  Effect on crop grade, b: directly sowed rice plant: 1 (Herbicidal ratio of 5% or higher and lower than 20%)
Wheat [8]
  e: wheat, effect on crop (criteria of Test Example 1): 4 (Herbicidal ratio of 70% or higher and lower than 90%)

## CON=C(C)CC1CC(O)=C(c2c(C)cc(-c3cc(F)c(F)c(F)c3)cc2C)C1=O (stereo not drawn) [6-104]
Alopecurus myosuroides [1]
  J: Alopecurus myosuroides, herbicidal effect (criteria of Test Example 1): 5 (Herbicidal ratio of 90% or more (almost completely withered))
Lolium multiflorum Lam. [2]
  K: Lolium multiflorum Lam., herbicidal effect (criteria of Test Example 1): 5 (Herbicidal ratio of 90% or more (almost completely withered))
Stellaria media
  Herbicidal effect grade, P: Stellaria media: 3 (Herbicidal ratio of 40% or higher and lower than 70%)
Alopecurus myosuroides [3]
  Herbicidal effect grade, J: Alopecurus myosuroides: 5 (Herbicidal ratio of 90% or more (almost completely withered))
beet
  Effect on crop grade, f: beet: 4 (Herbicidal ratio of 70% or higher and lower than 90%)
Lolium multiflorum Lam. [4]
  Herbicidal effect grade, K: Lolium multiflorum Lam.: 1 (Herbicidal ratio of 5% or higher and lower than 20%)
corn
  Effect on crop grade, c: corn: 5 (Herbicidal ratio of 90% or more (almost completely withered))
[5]
  Herbicidal effect grade, A: Echinochloa oryzacola Vasing.: 5 (Herbicidal ratio of 90% or more (almost completely withered))
rapeseed
  Effect on crop grade, g: rapeseed: 4 (Herbicidal ratio of 70% or higher and lower than 90%)
Wheat [6]
  Effect on crop grade, e: wheat: 5 (Herbicidal ratio of 90% or more (almost completely withered))
Rice plant
  b: directly sowed rice plant, effect on crop (criteria of Test Example 1): 5 (Herbicidal ratio of 90% or more (almost completely withered))
Digitaria ciliaris
  Herbicidal effect grade, F: Digitaria ciliaris: 5 (Herbicidal ratio of 90% or more (almost completely withered))
[7]
  effect on crop b (directly sowed rice plant), grade 0-5: 5 (Herbicidal ratio of 90% or more (almost completely withered))
rice
  Effect on crop grade, b: directly sowed rice plant: 5 (Herbicidal ratio of 90% or more (almost completely withered))
Wheat [8]
  e: wheat, effect on crop (criteria of Test Example 1): 5 (Herbicidal ratio of 90% or more (almost completely withered))

## CON=C(C)CC1CC(OS(=O)(=O)N(C)C)=C(c2c(C)cc(C)cc2OC)C1=O (stereo not drawn) [6-095]
Alopecurus myosuroides [1]
  J: Alopecurus myosuroides, herbicidal effect (criteria of Test Example 1): 5 (Herbicidal ratio of 90% or more (almost completely withered))
Lolium multiflorum Lam. [2]
  K: Lolium multiflorum Lam., herbicidal effect (criteria of Test Example 1): 5 (Herbicidal ratio of 90% or more (almost completely withered))
Stellaria media
  Herbicidal effect grade, P: Stellaria media: 0 (Herbicidal ratio of 5% or lower (almost no effect))
Alopecurus myosuroides [3]
  Herbicidal effect grade, J: Alopecurus myosuroides: 5 (Herbicidal ratio of 90% or more (almost completely withered))
beet
  Effect on crop grade, f: beet: 0 (Herbicidal ratio of 5% or lower (almost no effect))
Lolium multiflorum Lam. [4]
  Herbicidal effect grade, K: Lolium multiflorum Lam.: 5 (Herbicidal ratio of 90% or more (almost completely withered))
corn
  Effect on crop grade, c: corn: 2 (Herbicidal ratio of 20% or higher and lower than 40%)
[5]
  Herbicidal effect grade, A: Echinochloa oryzacola Vasing.: 5 (Herbicidal ratio of 90% or more (almost completely withered))
rapeseed
  Effect on crop grade, g: rapeseed: 4 (Herbicidal ratio of 70% or higher and lower than 90%)
Wheat [6]
  Effect on crop grade, e: wheat: 2 (Herbicidal ratio of 20% or higher and lower than 40%)
Rice plant
  b: directly sowed rice plant, effect on crop (criteria of Test Example 1): 5 (Herbicidal ratio of 90% or more (almost completely withered))
Digitaria ciliaris
  Herbicidal effect grade, F: Digitaria ciliaris: 5 (Herbicidal ratio of 90% or more (almost completely withered))
[7]
  effect on crop b (directly sowed rice plant), grade 0-5: 5 (Herbicidal ratio of 90% or more (almost completely withered))
rice
  Effect on crop grade, b: directly sowed rice plant: 5 (Herbicidal ratio of 90% or more (almost completely withered))
Wheat [8]
  e: wheat, effect on crop (criteria of Test Example 1): 4 (Herbicidal ratio of 70% or higher and lower than 90%)
